Measured values taken from US8536132B2, “Lymphatic zip codes in tumors and pre-malignant lesions” (Sanford-Burnham Medical Research Institute, priority 2006, dated 2013).
“Also recorded” adds a separate entry of the source. Marks after values point to notes of the source that are not given here.

Experiments:
[1] = tested on: K14-HPV16/E2 cervical tumors; test: In vivo phage homing to K14-HPV16/E2 cervical tumors; parameters: species or system mouse; settings: for phage homing to K14-HPV16/E2 cervical tumors (in words): i.v. injected phage; for Fold over control phage / Specific Homing: phage homing in vivo, K14-HPV16/E2 cervical cancer / cervical tumors
Description: (§1) The following cell lines were maintained in DMEM supplemented with 10% FCS: C8161 human melanoma, MDA-MB-435 human breast cancer, KRIB human osteosarcoma, and human prostate cancer cells PPC1, DU145. LNCaP human prostate cancer cell line was grown in RPMI 1640 medium with 10 mM HEPES, 1 mM sodium pyruvate and 1.5 g/L sodium bicarbonate supplemented with 10% FCS. M12 human prostate cancer cell line was cultured in RPMI 1640 with 5 μg/ml insulin-transferrin-sodium selenite (ITS), 2.5 μg/ml fungizone, 50 μg/ml gentamycin, 0.2 μM dexamethasone, 10 ng/ml epidermal growth factor (EGF), and 5% FCS (Bae et al., 1998). To produce tumors, nude BALB/c and C56BL/6 mice were subcutaneously (C8161, KRIB, and PPC1) or orthotopically ([…], PPC1, DU145, M12, and LNCaP) injected with 1×10^6 tumor cells. Transgenic mouse tumor models included TRAMP prostate cancer, MMTV-PyMT breast cancer, and K14-HPV16 cervical cancer. To initiate cervical carcinogenesis, female K14-HPV16 mice (Arbeit et al., 1994) were treated with 17β-estradiol (E2; (Arbeit et al., 1996; Giraudo et al., 2004). Briefly, one-month-old virgin female transgenic (heterozygous K14-HPV16, 1203#1) and nontransgenic (FVB/n) mice were anesthetized with isoflurane, and continuous release pellets that deliver E2 at doses of 0.05 mg over 60 days (Innovative Research of America, Sarasota, Fla., USA) were implanted subcutaneously in the dorsal back skin. Subsequent pellets were implanted at 3 and 5 months of age for a total of 6 months of hormone treatment. K14-HPV16 mice were maintained in the FVB/n background (FVB/n; The Jackson Laboratory). The mice were maintained in accordance with the University of California, San Francisco (UCSF) institutional guidelines governing the care of laboratory mice. The animal experimentation was approved by Animal Research Committees at UCSF or The Burnham Institute.
(§2) In vivo homing specificity of phage was tested as described (Hoffman, 2004). Briefly, mice bearing tumors were anesthetized and intravenously injected with 5×10^9 pfu of phage. After 7 min, the mice were perfused through the heart with PBS containing 0.5% BSA. The tumor and control organs were dissected from each mouse and the phage were rescued and tittered. For histology analysis, the mice were perfused with 4% PFA 30 min after the injection of phage. Tissues were embedded in Tissue-Tek O.C.T. and 5 μm sections were prepared for phage immunostaining.

MMTV-PyMT breast tumors = test: In vivo phage homing to MMTV-PyMT breast tumors; parameters: species or system mouse; settings: for phage homing to MMTV-PyMT breast tumors (in words): i.v. injected phage; for Fold over control phage / Specific Homing: phage homing in vivo, MMTV-PyMT breast tumors
Description: as §1, §2

TRAMP PIN lesions = test: In vivo phage homing to TRAMP pre-malignant (PIN) lesions; parameters: species or system mouse; settings: for phage homing to TRAMP pre-malignant lesions (in words): i.v. injected phage
Description: as §1, §2

TRAMP prostate tumors [2] = test: In vivo phage homing to TRAMP prostate tumors; parameters: species or system mouse; settings: for Fold over control phage / Specific Homing: phage homing in vivo, TRAMP prostate tumors; for phage homing to TRAMP prostate tumors (in words): i.v. injected phage
Description: as §1, §2

TRAMP prostate tumors [3] = settings: for fluorescent peptide in TRAMP prostate tumors (in words): fluorescein-conjugated peptide i.v.
Description: (§3) Custom immunization to produce a rabbit antiserum against mouse Prox-1 was performed by Proteintech Inc. New Zealand White rabbits were immunized with a fusion protein of GST-C-terminal fragment of Prox-1 protein. The antibody was affinity purified on the fusion protein and absorbed with GST. […] Antibodies against the lymphatic markers anti-LYVE-1 (Laakkonen et al., 2002) and anti-podoplanin (kindly provided by T. Petrova and K. Alitalo), rat monoclonal anti-mouse CD31 (BD Pharmingen), rat anti-mouse MECA-32 (Pharmingen), rabbit polyclonal anti-T7 phage, and rat anti-mouse VEGFR3 were used for immunohistochemical staining of frozen tissue sections as described (Joyce et al., 2003; Laakkonen et al., 2002). The corresponding secondary antibodies were added and incubated for 1 hr at room temperature: AlexaFluor-488 goat anti-rat or rabbit IgG (1:1000; Molecular Probes, Eugene, Oreg.), AlexaFluor-594 goat anti-rat or rabbit IgG (1:1000, Molecular Probes), AlexaFluor-594 donkey anti-mouse or goat IgG (1:1000, Molecular Probes), and AlexaFluor-488 donkey anti-mouse or goat IgG (1:1000; Molecular Probes), respectively. The slides were washed three times with PBS and mounted in Vectashield Mounting Medium with DAPI (Vector Laboratories, Burlingame, Calif.). Blood vessels were also visualized by intravenously injecting Lycopersicon esculentum (tomato) lectin conjugated to fluorescein (100 μg of lectin in 200 μl of PBS; Vector Laboratories). […] The injected peptides were allowed to circulate 30 min to 2 hrs, and the mice were perfused with 4% paraformaldehyde through the left ventricle of heart. Tissues were dissected and frozen in OCT embedding medium (Tissue-Tek, Elkhart, Ind.). The frozen sections were prepared for immunohistological analysis.

[4] = tested on: pre-malignant TRAMP lesions
Description: as §3

normal tissues = test: In vivo phage homing to normal and control tissues; parameters: species or system mouse; settings: for phage in other tissues versus nonrecombinant control phage: lymph nodes, kidneys, lungs, skin, gut
Description: as §2

[5] = tested on: human prostate tumor sections; test: Phage overlay of tissue sections from human prostate cancer; settings: two primary human prostate cancers
Description: The frozen sections of human prostate tumor specimens were obtained from Dr. Daniel Mercola (Sidney Kimmel Cancer Center, La Jolla, Calif.). The sections (5 μm) were preincubated with blocking buffer (5% normal goat serum and 0.5% BSA in 1×PBS) for 1 hr at room temperature, washed three times with diluted blocking buffer (1:10), and phage (3×10^9 pfu) were incubated on the section for 4 hrs. After 3 washes, rabbit anti-phage antibody (10 μg/ml) was added and the phage incubated for 2 hrs. The slides were washed and incubated with AlexaFluor-488 goat anti-rabbit IgG for 1 hr. After further washes, the slides were mounted with Vectashield (VECTOR, Burlingame, Calif.).

[6] = tested on: PPC1 orthotopic xenografts; test: In vivo phage homing to PPC1 orthotopic xenografts; parameters: species or system mouse; settings: for phage homing to PPC1 orthotopic xenografts (in words): i.v. injected phage
Description: as §1, §2

[7] = tested on: DU145 orthotopic xenografts; test: In vivo phage homing to DU145 orthotopic xenografts; parameters: species or system mouse; settings: for phage homing to DU145 xenografts (in words): i.v. injected phage
Description: as §1, §2

C8161 xenografts = test: In vivo phage homing to C8161 xenograft tumors; parameters: species or system mouse
Description: as §1, §2

[8] = phage homing in vivo, TRAMP PIN lesions
[9] = phage and fluorescein-labeled peptide, TRAMP pre-malignant lesions
[10] = phage homing in vivo, PPC1 orthotopic xenografts
[11] = phage homing in vivo, DU145 orthotopic xenografts
[12] = phage and fluorescein-labeled peptide, TRAMP tumors
[13] = phage homing in vivo, C8161 (s.c.) xenografts

With “CAGRRSAYC [homing peptide for pre-malignant TRAMP prostate lesions]” the “phage homing to K14-HPV16/E2 cervical tumors (in words)” value [1] was “little homing of the phage”, the “Fold over control phage” value [1] was 4 fold and the “Specific Homing” value [1] was “No”. For the same sequence, the “phage homing to MMTV-PyMT breast tumors (in words)” value (MMTV-PyMT breast tumors) was “little homing of the phage”, the “Fold over control phage” value (MMTV-PyMT breast tumors) was 4 fold and the “Specific Homing” value (MMTV-PyMT breast tumors) was “No”. The “phage homing to TRAMP pre-malignant lesions (in words)” value (TRAMP PIN lesions; listed as AGR phage) was “selectively home to pre-malignant lesions; also recorded: homed significantly more; also recorded: homes only to pre-malignant lesions; also recorded: marked preference”, the “enrichment to pre-malignant TRAMP lesions relative to nonrecombinant phage” value (TRAMP PIN lesions; phage clones tested in vivo individually) was 24 fold and the “Fold over control phage” value (TRAMP PIN lesions; [8]) was 18 fold. For the same sequence, the “Specific Homing” value (TRAMP PIN lesions; [8]) was “Yes”, the “Fold over control phage” value (TRAMP prostate tumors [2]) was 4 fold and the “Specific Homing” value (TRAMP prostate tumors [2]) was “No”. The “fluorescent peptide in TRAMP prostate tumors (in words)” value (TRAMP prostate tumors [3]) was “little or no peptide was seen”, the “co-localization with lymphatic markers podoplanin, VEGFR3, LYVE-1, Prox-1” value [4, 9] was “substantial co-localization” and the “localization versus blood vessel markers CD31 and MECA-32” value [4, 9] was “entirely distinct”. The “phage in other tissues versus nonrecombinant control phage” value (normal tissues) was “Neither phage was found in other tissues” and the “phage binding to human prostate tumor sections (in words)” value [5] was “did not bind”.
In the case of “CREAGRKAC [homing peptide for prostate tumor lymphatics]”, the “phage homing to K14-HPV16/E2 cervical tumors (in words)” value [1] is reported as “slightly positive”, the “Fold over control phage” value [1] is reported as 7^‡ fold and the “Specific Homing” value [1] is reported as “Yes”. For the same sequence, the “phage homing to PPC1 orthotopic xenografts (in words)” value ([6]; listed as REA phage) was “homed”, the “phage homing to PPC1 orthotopic xenografts (in words)” value ([6]; listed as REA-phage) was “Significant phage homing” and the “Fold over control phage” value [6, 10] was 25 fold. For the same sequence, the “Specific Homing” value [6, 10] was “Yes”, the “phage homing to MMTV-PyMT breast tumors (in words)” value (MMTV-PyMT breast tumors) was “negative for REA binding” and the “Fold over control phage” value (MMTV-PyMT breast tumors) was 8^‡ fold. For the same sequence, the “Specific Homing” value (MMTV-PyMT breast tumors) was “Yes”, the “phage homing to TRAMP pre-malignant lesions (in words)” value (TRAMP PIN lesions) was “not to pre-malignant lesions or normal prostate” and the “phage homing to DU145 xenografts (in words)” value ([7]; listed as REA phage) was “homed”. The “phage homing to DU145 xenografts (in words)” value ([7]; listed as REA-phage) was “Significant phage homing”, the “Fold over control phage” value [7, 11] was 14 fold and the “Specific Homing” value [7, 11] was “Yes”. For the same sequence, the “enrichment in TRAMP tumors relative to nonrecombinant phage” value (TRAMP prostate tumors [2]; i.v. injected phage clone) was 50 fold, the “phage homing to TRAMP prostate tumors (in words)” value (TRAMP prostate tumors [2]; listed as REA phage) was “homes to tumors” and the “phage homing to TRAMP prostate tumors (in words)” value (TRAMP prostate tumors [2]; listed as REA-phage) was “accumulate in TRAMP tumors; also recorded: Significant phage homing”. For the same sequence, the “Fold over control phage” value (TRAMP prostate tumors [2]) was 46 fold, the “Specific Homing” value (TRAMP prostate tumors [2]) was “Yes” and the “fluorescent peptide in TRAMP prostate tumors (in words)” value (TRAMP prostate tumors [3]) was “accumulated in prostate tumors”. For the same sequence, the “overlap with podoplanin-positive lymphatic vessels” value (TRAMP prostate tumors [3]; fluorescein-conjugated peptide, prostate tumors) was 90%, the “co-localization with lymphatic markers podoplanin, VEGFR3, LYVE-1, Prox-1” value (TRAMP prostate tumors [3]; [12]) was “substantial co-localization” and the “localization versus blood vessel markers CD31 and MECA-32” value (TRAMP prostate tumors [3]; [12]) was “entirely distinct”. The “fluorescent peptide in TRAMP pre-malignant lesions (in words)” value ([4]; fluorescein-conjugated peptide i.v.) was “negative”, the “phage homing to C8161 tumors (in words)” value (C8161 xenografts; i.v. injected phage, C8161 xenograft mice) was “negative for REA binding” and the “Fold over control phage” value (C8161 xenografts; [13]) was 5 fold. The “Specific Homing” value (C8161 xenografts; [13]) was “No”, the “phage in other tissues versus nonrecombinant control phage” value (normal tissues) was “Neither phage was found in other tissues” and the “phage homing to normal prostate” value (normal tissues; tumor-free littermates of TRAMP mice) was “not to pre-malignant lesions or normal prostate”. For the same sequence, the “phage binding to human prostate tumor sections (in words)” value [5] was “recognizes the lymphatics of human prostate tumors”.
